The subject of test [1] is Chimera N3A. As to the kind of experiment: [3H]-adenosine uptake in transfected L. donovani cells. It counts as cell-based, Crithidia fasciculata. As to conditions: labelled compound.
The subject of test [2] is Chimera N1A. The test is described as above. It counts as cell-based, Crithidia fasciculata. Conditions: labelled compound.

What is called Km is the concentration of substrate that gives half-maximal velocity. For the molecule `Nc1ncnc2c1ncn2[C@@H]1O[C@H](CO)[C@@H](O)[C@H]1O` [adenosine], the figures for the Km in test [1] and in test [2] were 1.2 ± 0.16 µM and 0.5 ± 0.14 µM, respectively.
